In brackets after ≈: the same amount, converted by molar mass. Entries after “also recorded” stand apart in the source; their conditions may differ. Like-named read-outs stand apart in the source and are kept apart here. One block for each compound: values may come before it.
Experiments:
[1] = Solubility in miliQ water by HPLC (area under the curve); assay type: physicochemical
Method: 1 mg/ml and 2 mg/ml solution of Mefloquine and Tadlafil respectively and equivalent weight of respective trigonelline modified compound (1011), compound (1005) of the present invention was taken in miliQ water, vortexed, centrifuged for 3 min, filtered and loaded on HPLC column (Zorbax Eclipse C18; Mobile Phase: A: 0.1% TFA, B: ACN; run time 15 min, Waters 2996 HPLC model).

[2] = Pharmacokinetics in SD rats, IV dosing (Docetaxel and 1008); assay type: in vivo; settings: for AUC / Cmax / Tmax / half-life: Sprague-Dawley, rat, plasma, PEG400 and Normal saline; for half-life: read-out: T1/2 elimination (converted)
Excerpt: The results were compared with exposure of Docetaxel (10 mpk) using the same dosing vehicle.
Supernatant was kept for analysis.

[3] = Solubility of Paclitaxel modified drug in saline solvent systems by HPLC; settings: for Fold increase in solubility: versus Paclitaxel; for Solubility compared with parent drug: aqueous solubility; for solubility: thermodynamic from solid
Method: Solubility was checked in different solvent systems.
Area under the curve for each were determined and based on that fold increase in solubility was determined.

[4] = Stability and solubility in dosing vehicle PEG400 and Normal saline; assay type: physicochemical; settings: PEG400 and Normal saline in fixed composition
[5] = Pharmacokinetics in SD rats, IV dosing (Paclitaxel and 1001)
Method: Pharmacokinetics studies were carried out to evaluate the plasma exposure of modified drug of Paclitaxel in SD rats when dosed intravenously (IV). The results were compared with exposure of Paclitaxel using the same dosing vehicle. The dosing vehicle that was used in this study was PEG400 and Normal saline in fixed composition. […] 3 mpk and 1 mpk IV dosing was done for the modified drug and 3 mpk IV for Paclitaxel parent drug. After IV dosing of the modified drug blood was collected by serial bleeding at different time points in heparinized tubes. Blood samples were centrifuged at 10,000 rpm for 5 min at 4° C. to obtain the plasma, which were aspirated into separate labeled tubes and stored at −80° C. Extraction solvent was added to plasma, was vortexed and shaken on shaker for 10 minutes, centrifuged at 10,000 rpm for 10 minutes at 4° C. Supernatant was kept for analysis.
Acetonitrile and plasma calibration curves were generated and percentage of drug recovery from plasma determined Quantitative analysis was done by liquid chromatography tandem mass spectrometer (API3000 LC-MS/MS).

[6] = concentration used for HPLC analysis 1 mg/ml
[7] = concentration used for HPLC analysis 2 mg/ml
[8] = 3 mg/Kg iv, PEG/Normal Saline (3 mpk 1001 = 2.1 mpk Paclitaxel delivered)

SMILES: CN1CC(=O)N2[C@H](c3ccc4c(c3)OCO4)c3c(c4ccccc4n3C(=O)c3ccc[n+](C)c3)C[C@@H]2C1=O [Compound 1005, 3-((6R,12aR)-6-(benzo[d][1,3]dioxol-5-yl)-2-methyl-1,4-dioxo-1,2,3,4,6,7,12,12a-octahydropyrazino[1′,2′:1,6]pyrido[3,4-b]indole-7-carbonyl)-1-methylpyridin-1-ium iodide]
Aqueous solubility over parent drug [1]: significant increase
Fold increase in solubility for equiv. wt of DM using HPLC ([1]; 2 mg/ml, versus parent Tadalafil): 80 fold
solubility [1, 7]: Completely

SMILES: CC(=O)O[C@H]1C(=O)C2(C)C([C@H](OC(=O)c3ccccc3)[C@]3(O)C[C@H](OC(=O)[C@H](OC(=O)c4ccc[n+](C)c4)[C@H](NC(=O)c4ccccc4)c4ccccc4)C(C)=C1C3(C)C)[C@]1(OC(C)=O)CO[C@@H]1C[C@@H]2O.[I-] (stereo partly drawn) [Compound 1001, 3-((((1R,2R)-1-benzamido-3-(((2aR,4S,6R,9S,11S,12S,12bS)-6,12b-diacetoxy-12-(benzoyloxy)-4,11-dihydroxy-4a,8,13,13-tetramethyl-5-oxo-2a,3,4,4a,5,6,9,10,11,12,12a,12b-dodecahydro-1H-7,11-methanocyclodeca[3,4]benzo[1,2-b]oxet-9-yl)oxy)-3-oxo-1-phenylpropan-2-yl)oxy)carbonyl)-1-methylpyridin-1-ium iodide]
Fold increase in solubility ([3]; Normal Saline with 5% Dimethylacetamide): > 10,000 ×
Fold increase in solubility ([3]; Normal Saline with 5% Dimethylsulfoxide): > 12,000 ×
Fold increase in solubility ([3]; Normal Saline with 9% N-Methylpyrrolidone): > 15,000 ×
Fold increase in solubility ([3]; Normal Saline): > 5000 ×
Solubility compared with parent drug [3]: increased solubility; also recorded: better aqueous solubility
solubility ([3]; aqueous with cosolvent or surfactant or cyclodextrin, Solubility in 5% DMA in normal saline, 5% DMA in normal saline): ~1000 µg/mL
solubility ([3]; aqueous with cosolvent or surfactant or cyclodextrin, Solubility in 5% DMSO in Normal saline, 5% DMSO in Normal saline): > 1200 µg/mL
solubility ([3]; aqueous with cosolvent or surfactant or cyclodextrin, Solubility in 9% NP in Normal Saline, 9% NP in Normal Saline): > 1500 µg/mL
solubility ([3]; saline or isotonic, Solubility in Normal saline, Normal saline): > 500 µg/mL
Stability in the selected solvents ([3]; selected solvent systems in normal saline): stable
Stability and solubility in the dosing vehicle [4]: stable and soluble
Cmax ([5]; 1 mg/Kg iv, PEG/Normal Saline (1 mpk 1001 = 0.71 mpk Paclitaxel delivered)): 2384 nm
Cmax [5, 8]: 8620 nm
Fold increase in the AUC ([5]; iv, versus Paclitaxel): more than 10 fold
Fold increase in the Cmax ([5]; iv, versus Paclitaxel): more than 80 folds

SMILES: CC(=O)O[C@@]12CO[C@@H]1C[C@H](O)[C@@]1(C)C(=O)[C@H](O)C3=C(C)[C@@H](OC(=O)[C@H](OC(=O)c4ccc[n+](C)c4)[C@@H](NC(=O)OC(C)(C)C)c4ccccc4)C[C@@](O)([C@@H](OC(=O)c4ccccc4)[C@H]21)C3(C)C.[I-] [Compound 1008, 3-((((2R,3S)-1-(((2aR,4S,4aS,6R,9S,11S,12S,12aR,12bS)-12b-acetoxy-12-(benzoyloxy)-4,6,11-trihydroxy-4a,8,13,13-tetramethyl-5-oxo-2a,3,4,4a,5,6,9,10,11,12,12a,12b-dodecahydro-1H-7,11-methanocyclodeca[3,4]benzo[1,2-b]oxet-9-yl)oxy)-3-((tert-butoxycarbonyl)amino)-1-oxo-3-phenylpropan-2-yl)oxy)carbonyl)-1-methylpyridin-1-ium iodide]
Solubility compared with parent drug [3]: better aqueous solubility
Exposure compared to the parent drug ([2]; IV, 1008 3 mpk versus Docetaxel 10 mpk): significantly higher exposure
Pharmacokinetics compared to the original compound ([2]; IV, versus Docetaxel): enhanced pharmacokinetics
AUC ([2]; 3 mg/kg, 3 mpk IV): 1.04 µM·h
Cmax ([2]; 3 mg/kg, 3 mpk IV): 6.92 µM
Tmax ([2]; 3 mg/kg, 3 mpk IV): 4.8 min
half-life ([2]; 3 mg/kg, 3 mpk IV): 107 min
Stability and solubility in the dosing vehicle [4]: stable and soluble

Now from value to compound:

solubility [1, 6]: Poor
SMILES: OC(c1cc(C(F)(F)F)nc2c(C(F)(F)F)cccc12)C1CCCCN1 (stereo not shown) [Mefloquine, reference compound]

AUC ([2]; 10 mg/kg, 10 mpk IV): 0.897 µM·h
Cmax ([2]; 10 mg/kg, 10 mpk IV): 0.495 µM
Tmax ([2]; 10 mg/kg, 10 mpk IV): 4.8 min
half-life ([2]; 10 mg/kg, 10 mpk IV): 124 min
SMILES: CC(=O)O[C@@]12CO[C@@H]1C[C@H](O)[C@@]1(C)C(=O)[C@H](O)C3=C(C)[C@@H](OC(=O)[C@H](O)[C@@H](NC(=O)OC(C)(C)C)c4ccccc4)C[C@@](O)([C@@H](OC(=O)c4ccccc4)[C@H]21)C3(C)C [Docetaxel, reference compound]

solubility [1, 7]: Very poor
SMILES: CN1CC(=O)N2[C@H](c3ccc4c(c3)OCO4)c3[nH]c4ccccc4c3C[C@@H]2C1=O [Tadalafil, reference compound]

Aqueous solubility over parent drug [1]: significant increase
Fold increase in solubility for equiv. wt of DM using HPLC ([1]; 1 mg/ml, versus parent Mefloquine): 2.4 fold
solubility [1, 6]: Completely
SMILES: C[n+]1cccc(C(=O)N2CCCC[C@@H]2[C@@H](O)c2cc(C(F)(F)F)nc3c(C(F)(F)F)cccc23)c1 [Compound 1011, 3-((R)-2((S)-(2,8-bis(trifluoromethyl)quinolin-4 yl)(hydroxy)methyl)piperidine-1-carbonyl)-1-methylpyridin-1-ium]

Solubility in 5% DMA in normal saline ([3]; 5% DMA in normal saline): Not soluble
Solubility in 5% DMSO in Normal saline ([3]; 5% DMSO in Normal saline): Not soluble
Solubility in 9% NP in Normal Saline ([3]; 9% NP in Normal Saline): Not soluble
solubility ([3]; normal saline, saline or isotonic, Solubility in Normal saline): 0.1 µg/mL (≈ 0.117 µM)
Cmax [5, 8]: 104 nm
SMILES: CC(=O)O[C@H]1C(=O)[C@@]2(C)[C@H]([C@H](OC(=O)c3ccccc3)[C@]3(O)C[C@H](OC(=O)[C@H](O)[C@@H](NC(=O)c4ccccc4)c4ccccc4)C(C)=C1C3(C)C)[C@]1(OC(C)=O)CO[C@@H]1C[C@@H]2O [Paclitaxel, reference compound]
